Experimental data: patent publication US5332574A, “Compounds produced by a strain of Streptomyces exfoliatus” (Bristol-Myers Squibb Company, priority 1993, dated 1994)
Converted amounts (≈) assume the structure as drawn. Read-outs that look alike come from different tables or passages of the source.

What was measured:
Assay in all cases: MIC, serial two-fold agar dilution method
Format in all cases: cell-based
[1] = tested on: Bacillus subtilis ATCC 6633
Protocol: (§1) The minimum inhibitory concentrations (MICs) of BU-4726G-A and BU-4726G-B were determined against various bacteria and fungi by the serial two-fold agar dilution method. Nutrient agar medium (Eiken) was used for bacteria and Sabouraud dextrose agar medium (Difco) for fungi.
(§2) Medium: Nutrient agar (Eiken, pH 7.0)
(§3) Inoculum size: 10^5 cells/ml
(§4) Inoculated conditions: 32° C., 20 hours

Escherichia coli Juhl = tested on: Escherichia coli Juhl
Protocol: as §1, §2, §3, §4

Escherichia coli K12 = details: Nutrient agar pH 7.0, 10^5 cells/ml, 32° C., 20 hours
Protocol: as §1, §2, §3, §4

[2] = tested on: Klebsiella pneumoniae PCI 602
Protocol: as §1, §2, §3, §4

[3] = tested on: Micrococcus luteus ATCC 9341
Protocol: as §1, §2, §3, §4

[4] = tested on: Pseudomonas aeruginosa A9843 A; details: A9843A
Protocol: as §1, §2, §3, §4

Salmonella typhi 901 = details: Salmonella enterica, 20 h, pH 7
Protocol: as §1, §2, §3, §4

[5] = tested on: Staphylococcus aureus 209P
Protocol: as §1, §2, §3, §4

[6] = tested on: Staphylococcus aureus A15036(MRSA)
Protocol: as §1, §2, §3, §4

[7] = tested on: Staphylococcus aureus Smith
Protocol: as §1, §2, §3, §4

[8] = tested on: Staphylococcus epidermidis 11-1168; details: 111168, Nutrient agar pH 7.0, 10^5 cells/ml, 32° C., 20 hours
Protocol: as §1, §2, §3, §4

[9] = tested on: Streptococcus faecalis A2808; details: Enterococcus faecalis, A2808, 20 h, pH 7
Protocol: as §1, §2, §3, §4

Row | SMILES | MIC ([1]; ATCC6633, Bacillus subtilis ATCC 6633, Nutrient agar pH 7.0, 10^5 cells/ml, 32° C., 20 hours, read-out: MIC) [mg/L] | MIC (Escherichia coli Juhl; Escherichia coli Juhl, Nutrient agar pH 7.0, 10^5 cells/ml, 32° C., 20 hours, read-out: MIC) [mg/L] | MIC (Escherichia coli K12) [mg/L] | MIC ([2]; PCI602, Klebsiella pneumoniae PCI 602, Nutrient agar pH 7.0, 10^5 cells/ml, 32° C., 20 hours, read-out: MIC) [mg/L] | MIC ([3]; ATCC9341, Micrococcus luteus ATCC 9341, Nutrient agar pH 7.0, 10^5 cells/ml, 32° C., 20 hours, read-out: MIC) [mg/L] | MIC ([4]; Pseudomonas aeruginosa A9843 A, Nutrient agar pH 7.0, 10^5 cells/ml, 32° C., 20 hours, read-out: MIC) [mg/L] | MIC (Salmonella typhi 901) [mg/L] | MIC ([5]; Staphylococcus aureus 209P, Nutrient agar pH 7.0, 10^5 cells/ml, 32° C., 20 hours, read-out: MIC) [mg/L] | MIC ([6]; Staphylococcus aureus A15036(MRSA), Nutrient agar pH 7.0, 10^5 cells/ml, 32° C., 20 hours, read-out: MIC) [mg/L] | MIC ([7]; Staphylococcus aureus Smith, Nutrient agar pH 7.0, 10^5 cells/ml, 32° C., 20 hours, read-out: MIC) [mg/L] | MIC [8] [mg/L] | MIC [9] [mg/L] | MIC ([1]; Bacillus subtilis, ATCC6633, 20 h, pH 7) [mg/L] | MIC (Escherichia coli Juhl; Escherichia coli, 20 h, pH 7) [mg/L] | MIC ([2]; Klebsiella pneumoniae, PCI602, 20 h, pH 7) [mg/L] | MIC ([3]; Micrococcus luteus, ATCC9341, 20 h, pH 7) [mg/L] | MIC ([4]; Pseudomonas aeruginosa, 20 h, pH 7) [mg/L] | MIC ([5]; Staphylococcus aureus, 209P, 20 h, pH 7) [mg/L] | MIC ([6]; Staphylococcus aureus, MRSA, 20 h, pH 7) [mg/L] | MIC ([7]; Staphylococcus aureus, 20 h, pH 7) [mg/L]
1 | NCC[C@H](O)C(=O)N[C@@H]1C[C@H](N)[C@@H](O[C@H]2O[C@H](CN)[C@@H](O)[C@H](O)[C@H]2O)[C@H](O)[C@H]1O[C@H]1O[C@H](CO)[C@@H](O)[C@H](N)[C@H]1O [Amikacin] | 0.4 (≈ 0.683 µM) | 3.1 (≈ 5.29 µM) | 0.8 (≈ 1.37 µM) | 0.4 (≈ 0.683 µM) | 3.1 (≈ 5.29 µM) | 3.1 (≈ 5.29 µM) | 3.1 (≈ 5.29 µM) | 0.4 (≈ 0.683 µM) | 3.1 (≈ 5.29 µM) | 1.6 (≈ 2.73 µM) | 50 (≈ 85.4 µM) | 50 (≈ 85.4 µM) |  |  |  |  |  |  |  | 
2 | N[C@@H](C(=O)N[C@@H]1C(=O)N2C(C(=O)O)=C(Cl)CS[C@H]12)c1ccccc1 [Cefaclor] |  |  | 0.4 (≈ 1.09 µM) |  |  |  | 0.2 (≈ 0.544 µM) |  |  |  |  | 25 (≈ 68 µM) | < 0.05 | 0.4 (≈ 1.09 µM) | 0.2 (≈ 0.544 µM) | < 0.05 | > 100 | 0.8 (≈ 2.18 µM) | 25 (≈ 68 µM) | 0.4 (≈ 1.09 µM)
